According to patent US9675571B2, “Inhibitors of indoleamine 2,3-dioxygenase (IDO)” (BRISTOL-MYERS SQUIBB COMPANY, priority 2013, dated 2017):

Target: Human IDO1 (Homo sapiens (Human), UniProt P14902)
Experiment: IDO Kynurenine Assay with Human IDO1/HEK293 Cells
Assay type: cell-based
Details: 20 hours incubation, kynurenine detected with Ehrlich reagent, absorbance at 490 nm, read-out: HEK Human IDO-1 IC50
Experimental: Human IDO1/HEK293 cells were seeded at 10,000 cells per 50 uL per well with RPMI/phenol red free media contains 10% FBS in a 384-well black wall clear bottom tissue culture plate (Matrix Technologies LLC) 125 nL of certain concentration of compound was then added to each well using ECHO liquid handling systems. The cells were incubated for 20 hours in 37° C. incubator with 5% CO2.
The compound treatments were stopped by adding Trichloroacetic Acid (Sigma-Aldrich) to a final concentration at 0.2%. The cell plate was further incubated at 50° C. for 30 minute. The equal volume supernatant (20 uL) and 0.2% (w/v) Ehrlich reagent (4-dimethylaminobenzaldehyde, Sigma-Aldrich) in glacial acetic acid were mixed in a new clear bottom 384-well plate. This plate was then incubated at room temperature for 30 minute. The absorbance at 490 nm was measured on Envision plate reader.
Compound IC50 values were calculated using the counts of 500 nM of a reference standard treatment as one hundred percent inhibition, and counts of no compound but DMSO treatment as zero percent inhibition.

Sequence of Human IDO1 (P14902 whole entry): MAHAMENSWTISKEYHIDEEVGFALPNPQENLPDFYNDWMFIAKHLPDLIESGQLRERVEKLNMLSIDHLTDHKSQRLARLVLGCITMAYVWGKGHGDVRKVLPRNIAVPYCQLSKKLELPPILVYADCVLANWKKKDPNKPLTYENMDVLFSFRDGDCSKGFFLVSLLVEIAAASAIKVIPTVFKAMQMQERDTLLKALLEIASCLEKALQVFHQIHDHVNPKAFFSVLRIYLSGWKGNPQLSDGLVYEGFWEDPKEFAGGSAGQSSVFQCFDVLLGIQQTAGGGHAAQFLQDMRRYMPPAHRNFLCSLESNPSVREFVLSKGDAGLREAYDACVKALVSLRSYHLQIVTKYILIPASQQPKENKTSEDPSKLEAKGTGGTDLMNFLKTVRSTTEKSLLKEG

| SMILES | IC50 |
| --- | --- |
| COCCN(Cc1ccc(Cl)cc1)c1ccc([C@H]2C[C@H]2C(=O)O)cc1NC(=O)Nc1ccc(C)cc1 (single isomer, unassigned) [Example 43] | 88 nM |
| COC(=O)[C@@H]1C[C@@H]1c1ccc(N(CC(C)C)CC(C)C)c([N+](=O)[O-])c1 [Example 1J, (1R,2S)-methyl 2-(4-(diisobutylamino)-3-nitrophenyl) cyclopropanecarboxylate] | 8 nM |
| CC(C)CN(CC(C)C)c1ccc([C@H]2C[C@H]2C(=O)O)cc1NC(=O)Nc1ccc(Cl)c(Cl)c1 [Example 6, (1R,2S)-2-(3-(3-(3,4-dichlorophenyl)ureido)-4-(diisobutylamino)phenyl) cyclopropanecarboxylic acid] | 148 nM |
| CC(C)CN(CC(C)C)c1ccc([C@H]2C[C@H]2C(=O)O)cc1NC(=O)Nc1ccccc1Cl [Example 9, (1R,2S)-2-(3-(3-(2-chlorophenyl)ureido)-4-(diisobutylamino)phenyl) cyclopropanecarboxylic acid] | 97 nM |
| Cc1ccc(NC(=O)Nc2cc([C@H]3C[C@H]3C(=O)O)ccc2N(CC(C)C)CC(C)C)c(Cl)c1 [Example 14, (1R,2S)-2-(3-(3-(2-chloro-4-methylphenyl)ureido)-4-(diisobutylamino)phenyl) cyclopropanecarboxylic acid] | 86 nM |
| CC(C)CN(CC(C)C)c1ccc([C@H]2C[C@H]2C(=O)O)cc1NC(=O)Nc1ccc(CC#N)cc1 [Example 15, (1R,2S)-2-(3-(3-(4-(cyanomethyl)phenyl)ureido)-4-(diisobutylamino)phenyl) cyclopropanecarboxylic acid] | 541 nM |
| CC(C)CN(CC(C)C)c1ccc([C@@H]2C[C@@H]2C(=O)O)cc1NC(=O)Nc1ccc(C2CC2)cc1 [Example 20, (1S,2R)-2-(3-(3-(4-cyclopropylphenyl)ureido)-4-(diisobutylamino)phenyl) cyclopropanecarboxylic acid] | 61 nM |
| Cc1cc(NC(=O)Nc2cc([C@@H]3C[C@@H]3C(=O)O)ccc2N(CC(C)C)CC(C)C)on1 [Example 31, (1S,2R)-2-(4-(diisobutylamino)-3-(3-(3-methylisoxazol-5-yl)ureido)phenyl)cyclopropanecarboxylic acid] | 4 nM |
| CC(C)CN(CC(C)C)c1ccc([C@H]2C[C@H]2C(=O)O)cc1NC(=O)Nc1cc(C2CC2)no1 [Example 34, (1R,2S)-2-(3-(3-(3-cyclopropylisoxazol-5-yl)ureido)-4-(diisobutylamino)phenyl)cyclopropanecarboxylic acid] | 2 nM |
| CC(C)CN(CC(C)C)c1ccc([C@H]2C[C@H]2C(=O)O)cc1NC(=O)Nc1cc(C(F)(F)F)no1 [Example 36, (1R,2S)-2-(4-(diisobutylamino)-3-(3-(3-(trifluoromethyl)isoxazol-5-yl)ureido)phenyl)cyclopropanecarboxylic acid] | 7 nM |
| CC(C)CN(CC(C)C)c1ccc([C@@H]2C[C@@H]2C(=O)O)cc1NC(=O)Nc1cc(C(F)(F)F)no1 [Example 37, (1S,2R)-2-(4-(diisobutylamino)-3-(3-(3-(trifluoromethyl)isoxazol-5-yl)ureido)phenyl)cyclopropanecarboxylic acid] | 7 nM |
| Cc1cc(CC(=O)Nc2cc([C@@H]3C[C@@H]3C(=O)O)ccc2N(CC(C)C)CC(C)C)on1 [Example 63, (1S,2R)-2-(4-(diisobutylamino)-3-(2-(3-methylisoxazol-5-yl)acetamido)phenyl) cyclopropanecarboxylic acid] | 262 nM |
| CCOC(=O)Nc1ccc(NC(=O)Nc2cc([C@@H]3C[C@@H]3C(=O)O)ccc2N(CC(C)C)CC(C)C)cc1 [Example 71, (1S,2R)-2-(4-(diisobutylamino)-3-(3-(4-((ethoxycarbonyl)amino)phenyl)ureido)phenyl)cyclopropanecarboxylic acid] | 519 nM |
| Cc1ccc(NC(=O)Nc2cc([C@H]3C[C@H]3C(=O)O)ccc2N(CCCC(F)(F)F)C2CCCCC2)cc1 [Example 73, (1R,2S)-2-(4-(cyclohexyl(4,4,4-trifluorobutyl)amino)-3-(3-(p-tolyl)ureido)phenyl)cyclopropanecarboxylic acid] | 527 nM |
| O=C(Nc1cncnc1)Nc1cc([C@H]2C[C@H]2C(=O)O)ccc1N(CCCC(F)(F)F)C1CCCCC1 [Example 75] | 787 nM |
| Cc1ccc(NC(=O)Nc2cc([C@@H]3C[C@@H]3C(=O)O)ccc2N(CCCC(F)(F)F)C2CCCCC2)cc1 [Example 76, (1S,2R)-2-(4-(cyclohexyl(4,4,4-trifluorobutyl)amino)-3-(3-(p-tolyl)ureido)phenyl)cyclopropanecarboxylic acid] | 338 nM |
| O=C(Nc1cncnc1)Nc1cc([C@H]2C[C@H]2C(=O)O)ccc1N(CCC(F)(F)F)C1CCCCC1 [Example 87, (1R,2S)-2-(4-(cyclohexyl(3,3,3-trifluoropropyl)amino)-3-(3-(pyrimidin-5-yl)ureido)phenyl)cyclopropanecarboxylic acid] | 994 nM |
| Cc1cc(NC(=O)Nc2cc([C@H]3C[C@H]3C(=O)O)ccc2N(CC(C)C)C2CCCCC2)on1 [Example 129, (1R,2S)-2-(4-(cyclohexyl(isobutyl)amino)-3-(3-(3-methylisoxazol-5-yl)ureido)phenyl)cyclopropanecarboxylic acid] | 0.5 nM |

Further molecules by falling IC50, results first:

| IC50 | SMILES |
| --- | --- |
| 941 nM | CC(C)CN(CC(C)C)c1ccc([C@H]2C[C@H]2C(=O)O)cc1NC(=O)Nc1ccc(C(F)(F)F)cc1 [Example 5, (1R,2S)-2-(4-(diisobutylamino)-3-(3-(4-(trifluoromethyl)phenyl)ureido)phenyl)cyclopropanecarboxylic acid] |
| 442 nM | Cc1cccc(NC(=O)Nc2cc([C@@H]3C[C@@H]3C(=O)O)ccc2N(CC(C)C)CC(C)C)c1 [Example 19, (1S,2R)-2-(4-(diisobutylamino)-3-(3-(m-tolyl)ureido)phenyl) cyclopropanecarboxylic acid] |
| 200 nM | CC(C)CN(CC(C)C)c1ccc([C@@H]2C[C@@H]2C(=O)O)cc1NC(=O)Nc1ccc(OCC(F)(F)F)cc1 [Example 72, (1S,2R)-2-(4-(diisobutylamino)-3-(3-(4-(2,2,2-trifluoroethoxy)phenyl)ureido)phenyl)cyclopropanecarboxylic acid] |
| 126 nM | Cc1ccc(CC(=O)Nc2cc([C@H]3C[C@H]3C(=O)O)ccc2N(CC(C)C)CC(C)C)cn1 [Example 118, (1R,2S)-2-(4-(diisobutylamino)-3-(2-(6-methylpyridin-3-yl)acetamido)phenyl)cyclopropanecarboxylic acid] |
| 97 nM | CC(C)CN(CC(C)C)c1ccc([C@H]2C[C@H]2C(=O)O)cc1NC(=O)Cc1ccc(F)cc1 [Example 117, (1R,2S)-2-(4-(diisobutylamino)-3-(2-(4-fluorophenyl)acetamido)phenyl)cyclopropanecarboxylic acid] |
| 64 nM | Cc1ncc(NC(=O)Nc2cc([C@@H]3C[C@@H]3C(=O)O)ccc2N(CC(C)C)CC(C)C)cn1 [Example 77, (1S,2R)-2-(4-(diisobutylamino)-3-(3-(2-methylpyrimidin-5-yl)ureido)phenyl)cyclopropanecarboxylic acid] |
| 23 nM | Cc1cc(NC(=O)Nc2cc([C@@H]3C[C@@H]3C(=O)O)ccc2N(CC(C)C)CC(C)C)no1 [Example 67, (1S,2R)-2-(4-(diisobutylamino)-3-(3-(5-methylisoxazol-3-yl)ureido)phenyl)cyclopropanecarboxylic acid] |
| 21 nM | Cc1ccc(CC(=O)Nc2cc([C@H]3C[C@H]3C(=O)O)ccc2N(CC(C)C)CC(C)C)cc1 [Example 60, (1R,2S)-2-(4-(diisobutylamino)-3-(2-(p-tolyl)acetamido)phenyl)cyclopropanecarboxylic acid] |
| 6 nM | Cc1cc(NC(=O)Nc2cc([C@H]3C[C@H]3C(=O)O)ccc2N(CC(C)C)CC(C)C)on1 [Example 30, (1R,2S)-2-(4-(diisobutylamino)-3-(3-(3-methylisoxazol-5-yl)ureido)phenyl)cyclopropanecarboxylic acid] |
| 2 nM | COC(=O)C1CC1c1ccc(N(CC(C)C)CC(C)C)c([N+](=O)[O-])c1 (stereo not drawn) [ent-1J] |
